According to PubChem BioAssay (NCI):
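Assay format: 96-well plates, 48-hour exposure. GI50: concentration for 50% inhibition of growth. TGI is the concentration that stops growth completely.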

Key:
Experiment in all cases: NCI anticancer screen, dose series, 48 h
[1] = test system: 786-0 renal
[2] = test system: A498 renal
[3] = test system: A549 NSCLC
[4] = test system: ACHN renal
[5] = test system: BT-549 breast
[6] = test system: CAKI-1 renal
[7] = test system: CCRF-CEM leukemia
[8] = test system: COLO 205 colon
[9] = test system: DU-145 prostate
[10] = test system: EKVX NSCLC
[11] = test system: HCC-2998 colon
[12] = test system: HCT-116 colon
[13] = test system: HCT-15 colon
[14] = test system: HL-60(TB) leukemia
[15] = test system: HOP-62 NSCLC
[16] = test system: HOP-92 NSCLC
[17] = test system: HS 578T breast
[18] = test system: HT29 colon
[19] = test system: IGROV1 ovarian
[20] = test system: K-562 leukemia
[21] = test system: KM12 colon
[22] = test system: LOX IMVI melanoma
[23] = test system: M14 melanoma
[24] = test system: MALME-3M melanoma
[25] = test system: MCF7 breast
[26] = test system: MDA-MB-231 breast
[27] = test system: MDA-MB-435
[28] = test system: MDA-MB-468 breast
[29] = test system: MOLT-4 leukemia
[30] = test system: NCI-H226 lung
[31] = test system: NCI-H23 lung
[32] = test system: NCI-H460 lung
[33] = test system: NCI-H522 lung
[34] = test system: NCI/ADR-RES ovarian
[35] = test system: OVCAR-3 ovarian
[36] = test system: OVCAR-4 ovarian
[37] = test system: OVCAR-5 ovarian
[38] = test system: OVCAR-8 ovarian
[39] = test system: PC-3 prostate
[40] = test system: RPMI-8226 leukemia
[41] = test system: RXF 393 renal
[42] = test system: SF-268 CNS
[43] = test system: SF-295 CNS
[44] = test system: SF-539 CNS
[45] = test system: SK-MEL-2 melanoma
[46] = test system: SK-MEL-28 melanoma
[47] = test system: SK-MEL-5 melanoma
[48] = test system: SK-OV-3 ovarian
[49] = test system: SN12C renal
[50] = test system: SNB-19 CNS
[51] = test system: SNB-75 CNS
[52] = test system: SR leukemia
[53] = test system: SW-620 colon
[54] = test system: T-47D breast
[55] = test system: TK-10 renal
[56] = test system: U251 CNS
[57] = test system: UACC-257 melanoma
[58] = test system: UACC-62 melanoma
[59] = test system: UO-31 renal

Cc1cc2nc3c4ccccc4n(CCCN(C)C)c3nc2cc1C
GI50 [1]: 3 µM
TGI [1]: 11.8 µM
GI50 [2]: 3.97 µM
TGI [2]: 13 µM
GI50 [3]: 1.5 µM
TGI [3]: 4.04 µM
GI50 [4]: 1.73 µM
TGI [4]: 4.91 µM
GI50 [5]: 2.51 µM
TGI [5]: 9.68 µM
GI50 [6]: 2.08 µM
TGI [6]: 7.36 µM
GI50 [7]: 3.05 µM
TGI [7]: 11.7 µM
GI50 [8]: 1.32 µM
TGI [8]: 2.85 µM
GI50 [9]: 3.16 µM
TGI [9]: 9.57 µM
GI50 [10]: 3.01 µM
TGI [10]: 10.1 µM
GI50 [11]: 1.74 µM
TGI [11]: 3.83 µM
GI50 [12]: 1.77 µM
TGI [12]: 9 µM
GI50 [13]: 1.8 µM
TGI [13]: 3.56 µM
GI50 [14]: 2.19 µM
TGI [14]: 5.43 µM
GI50 [15]: 1.57 µM
TGI [15]: 5 µM
GI50 [16]: 1.89 µM
TGI [16]: 9.4 µM
GI50 [17]: 2.95 µM
TGI [17]: 14.8 µM
GI50 [18]: 1.45 µM
TGI [18]: 4.53 µM
GI50 [19]: 1.76 µM
TGI [19]: 4.11 µM
GI50 [20]: 2.52 µM
TGI [20]: 10.2 µM
GI50 [21]: 3.31 µM
TGI [21]: 11.3 µM
GI50 [22]: 1.35 µM
TGI [22]: 2.87 µM
GI50 [23]: 1.69 µM
TGI [23]: 3.5 µM
GI50 [24]: 1.82 µM
TGI [24]: 3.91 µM
GI50 [25]: 1.95 µM
TGI [25]: 4.88 µM
GI50 [26]: 1.94 µM
TGI [26]: 4.79 µM
GI50 [27]: 2.09 µM
TGI [27]: 4.52 µM
GI50 [28]: 2.46 µM
TGI [28]: 7.54 µM
GI50 [29]: 1.94 µM
TGI [29]: 6.41 µM
GI50 [30]: 2.38 µM
TGI [30]: 9.14 µM
GI50 [31]: 1.71 µM
TGI [31]: 4.1 µM
GI50 [32]: 2.31 µM
TGI [32]: 6.76 µM
GI50 [33]: 1.44 µM
TGI [33]: 3.45 µM
GI50 [34]: 1.41 µM
TGI [34]: 3.57 µM
GI50 [35]: 2.46 µM
TGI [35]: 6 µM
GI50 [36]: 2.65 µM
TGI [36]: 8.11 µM
GI50 [37]: 2.34 µM
TGI [37]: 6.87 µM
GI50 [38]: 1.32 µM
TGI [38]: 4.08 µM
GI50 [39]: 2.71 µM
TGI [39]: 17.3 µM
GI50 [40]: 2.65 µM
TGI [40]: 13.1 µM
GI50 [41]: 2.28 µM
TGI [41]: 7.09 µM
GI50 [42]: 2.95 µM
TGI [42]: 10.1 µM
GI50 [43]: 2.29 µM
TGI [43]: 8.79 µM
GI50 [44]: 2.16 µM
TGI [44]: 5.51 µM
GI50 [45]: 1.68 µM
TGI [45]: 3.21 µM
GI50 [46]: 3.06 µM
TGI [46]: 9.72 µM
GI50 [47]: 2.21 µM
TGI [47]: 5.12 µM
GI50 [48]: 2.05 µM
TGI [48]: 5.93 µM
GI50 [49]: 2.33 µM
TGI [49]: 10.1 µM
GI50 [50]: 2.99 µM
TGI [50]: 11.5 µM
GI50 [51]: 1.85 µM
TGI [51]: 10.2 µM
GI50 [52]: 2.03 µM
TGI [52]: 6.94 µM
GI50 [53]: 1.72 µM
TGI [53]: 5.45 µM
GI50 [54]: 2.72 µM
TGI [54]: 9.11 µM
GI50 [55]: 2.58 µM
TGI [55]: 8.64 µM
GI50 [56]: 2 µM
TGI [56]: 6.42 µM
GI50 [57]: 1.84 µM
TGI [57]: 4.41 µM
GI50 [58]: 1.89 µM
TGI [58]: 4.97 µM
GI50 [59]: 0.6 µM
TGI [59]: 3.27 µM

CC1(C)CC[C@]2(C(=O)O)CC[C@]3(C)C(=CCC4[C@@]5(C)C[C@@H](O)[C@@H]6OC(c7ccco7)OC[C@@]6(C)C5CC[C@]43C)C2C1 (stereo partly specified)
GI50 [1]: 18.9 µM
TGI [1]: 64.7 µM
GI50 [2]: 14.1 µM
TGI [2]: 30.8 µM
GI50 [3]: 3.2 µM
TGI [3]: 20.2 µM
GI50 [4]: 0.111 µM
TGI [4]: 14.5 µM
GI50 [5]: 6.78 µM
TGI [5]: 21.4 µM
GI50 [6]: 21.3 µM
TGI [6]: 83.3 µM
GI50 [7]: 5.21 µM
TGI [7]: 30.3 µM
GI50 [8]: 0.11 µM
TGI [8]: 0.263 µM
GI50 [9]: 11.6 µM
TGI [9]: 85 µM
GI50 [10]: 5.05 µM
TGI [10]: 21.9 µM
GI50 [11]: 6.35 µM
TGI [11]: 20.4 µM
GI50 [12]: 5.01 µM
TGI [12]: 18.4 µM
GI50 [13]: 3.32 µM
TGI [13]: 15.8 µM
GI50 [14]: 9.31 µM
TGI [14]: 43.4 µM
GI50 [15]: 7.06 µM
TGI [15]: 28.7 µM
GI50 [16]: 5.97 µM
TGI [16]: 22.7 µM
GI50 [17]: 11.1 µM
TGI [17]: 45.2 µM
GI50 [18]: 12.8 µM
TGI [18]: 41.5 µM
GI50 [19]: 11.7 µM
TGI [19]: 28 µM
GI50 [20]: 4.81 µM
TGI [20]: > 100 µM
GI50 [21]: 5.84 µM
TGI [21]: 23.4 µM
GI50 [22]: 5.69 µM
TGI [22]: 19.1 µM
GI50 [23]: 0.416 µM
TGI [23]: 16.8 µM
GI50 [24]: 0.191 µM
TGI [24]: 0.894 µM
GI50 [25]: 8.83 µM
TGI [25]: 36.4 µM
GI50 [26]: 16.2 µM
TGI [26]: 32.3 µM
GI50 [27]: 0.475 µM
TGI [27]: 15.4 µM
GI50 [28]: 0.11 µM
TGI [28]: 6.03 µM
GI50 [29]: 4.75 µM
TGI [29]: 33.7 µM
GI50 [30]: 11.7 µM
TGI [30]: 36.1 µM
GI50 [31]: 9.31 µM
TGI [31]: 23.2 µM
GI50 [32]: 6.45 µM
TGI [32]: 19.9 µM
GI50 [33]: 10.6 µM
TGI [33]: 28.1 µM
GI50 [34]: 6.62 µM
TGI [34]: 32.3 µM
GI50 [35]: 9.25 µM
TGI [35]: 23 µM
GI50 [36]: 16.6 µM
TGI [36]: 63.4 µM
GI50 [37]: 16.4 µM
TGI [37]: 30.6 µM
GI50 [38]: 10.3 µM
TGI [38]: 61.5 µM
GI50 [39]: 9.27 µM
TGI [39]: > 100 µM
GI50 [40]: 5.62 µM
TGI [40]: 71.2 µM
GI50 [41]: 13 µM
TGI [41]: 26.5 µM
GI50 [42]: 10.7 µM
TGI [42]: 31.8 µM
GI50 [43]: 5.3 µM
TGI [43]: 19.1 µM
GI50 [44]: 13.3 µM
TGI [44]: 26.4 µM
GI50 [45]: 0.417 µM
TGI [45]: 13.7 µM
GI50 [46]: 0.22 µM
TGI [46]: 15.7 µM
GI50 [47]: 0.304 µM
TGI [47]: 1.2 µM
GI50 [48]: 27.1 µM
TGI [48]: > 100 µM
GI50 [49]: 11.8 µM
TGI [49]: 26.2 µM
GI50 [50]: 3.97 µM
TGI [50]: 21.8 µM
GI50 [51]: 6.35 µM
TGI [51]: 30.2 µM
GI50 [52]: 9.92 µM
TGI [52]: 51.4 µM
GI50 [53]: 11.2 µM
TGI [53]: 25.4 µM
GI50 [54]: 15.6 µM
TGI [54]: > 100 µM
GI50 [55]: 16.4 µM
TGI [55]: 68.9 µM
GI50 [56]: 1.47 µM
TGI [56]: 16.9 µM
GI50 [57]: 0.208 µM
TGI [57]: 0.913 µM
GI50 [58]: 0.312 µM
TGI [58]: 12.5 µM
GI50 [59]: 6.95 µM
TGI [59]: 21.1 µM
